Tests used:
[1] = tested on: PARP (poly-ADP ribose polymerase); assay: PARP activity by Western blot (cleaved PARP) in CaCo-2 cells; type: cell-based, human
Procedure: The activities of caspase (caspase-3 and caspase-9) and PARP (poly-ADP ribose polymerase) were measured in a manner similar to those in Examples 1 and 2 by Western blot analysis using each of anti-activated (cleaved) caspase antibodies, that is, an anti-cleaved caspase-3 antibody, an anti-cleaved caspase-9 antibody (D330) and an anti-cleaved PARP antibody (D214).
N-(3-oxododecanoyl)-L-homoserine lactones with final concentrations of 30 μM and 100 μM were each added to cultured CaCo-2 cells. Caspase-3, caspase-9 and PARP activities were analyzed over time by Western blot at 0 hours, 1 hour, 2 hours, 4 hours, 6 hours, 8 hours and 10 hours after culture. […] Whereas at 30 μM, activated caspase-3 began to be detected 1 hour after stimulation and the activity lasted until 4 hours after stimulation, at 100 μM the activity peaked at 6 hours and lasted until 10 hours after stimulation. Cleaved caspase-9 and cleaved PARP were detected by reprobing each membrane.
Next, 3 hours of reaction with N-(3-oxododecanoyl)-L-homoserine lactone was carried out at concentrations of 0, 1, 10, 30, and 100 μM, and then caspase and PARP activities were measured.

[2] = tested on: CaCo-2 cells; assay: Effects of kinase inhibitors on N-(3-oxododecanoyl)-L-homoserine lactone-dependent apoptosis, viability by Trypan blue staining; type: cell-based, human; conditions: 30 μM alone, 12 hours, control 96%
Procedure: 2×10^5 CaCo-2 cells were inoculated per 3.5 cm dish, cultured for 12 hours in the presence of 10% serum, washed twice with PBS (-), and then synchronously cultured in a serum-free medium for 24 hours. Pretreatment with various inhibitors (50 μM PD98059 and 20 μM SB203580) or DMSO was carried out for 30 minutes. Then 30 μM N-(3-oxododecanoyl)-L-homoserine lactone or DMSO was added, the cells were cultured for 12 hours, and then viability was measured by Trypan blue staining.

[3] = tested on: Akt; assay: Akt activity (phospho-Akt) by Western blot in CaCo-2 cells; type: cell-based, human; conditions: stimulation at 10 μM
[4] = tested on: CaCo-2 cells; assay: Chromatin condensation and determination of apoptosis by Hoechst33342 staining; type: cell-based, human; conditions: 12 hours of culture
Procedure: 2×10^4 CaCo-2 cells were inoculated on an 8-well culture slide (Collagen I Cellware BioCoat, Becton Dickinson), washed twice with PBS (-), and then cultured in a serum-free DMEM medium containing 1% NEAA for 24 hours. 3-oxododecanoyl homoserine lactone was added at each concentration (1 to 100 μM). After 12 hours of culture, the cells were fixed by 4% paraformaldehyde-3% sucrose/PBS, chromatin staining was carried out using Hoechst 33342 fluorescent dye, and then the cells were observed under a fluorescence microscope. With a magnification of ×400, 5 visual fields were selected at random. Apoptotic cells and normal cells were counted and the proportion of apoptotic cells was calculated. These steps were denoted as n=1, and conducted 3 times or more.

[5] = tested on: CaCo-2 cells; assay: Evaluation of apoptosis by DNA fragmentation (DNA ladder); type: cell-based, human; conditions: CaCo-2 cells cultured for 12 hours, 0-100 μM
Procedure: 5×10^6 CaCo-2 cells were inoculated per 15 cm dish (NUNC), washed twice with PBS (-), and then cultured in a serum-free DMEM medium containing 1% NEAA for 24 hours. N-(3-oxododecanoyl)-L-homoserine lactone was added at each concentration (1 μM to 100 μM), followed by 12 hours of culture. Subsequently, the supernatant and the cells removed from the dish using TE were centrifuged at room temperature at 800 rpm for 5 minutes, and the supernatant was removed. The cells were suspended with 300 μl of PBS (-), and then the suspension was centrifuged again at 4° C. at 2500 rpm for 5 minutes, and the supernatant was removed. The cells were lysed by the addition of 300 μl of a cytolysis buffer [10 mM Tris-HCl (pH 7.4), 10 mM EDTA (pH 8.0), 0.5% Triton X-100], and then allowed to stand on ice for 10 minutes, thereby extracting DNA fragments. The extract was centrifuged at 4° C. at 14000 rpm for 10 minutes. RNase A was added to the obtained supernatant, and then incubation was carried out at 37° C. for 1 hour. Proteinase K was further added, and then incubation was carried out at 50° C. for 30 minutes. The extract of the DNA fragments was concentrated by ethanol precipitation, and then electrophoresis was carried out using 2% agarose gel. After the gel was stained with ethidium bromide, DNA fragmentation was detected under a UV transilluminator.

[6] = tested on: Akt; assay: Akt activity by Western blot in porcine vascular endothelial cells (PECs); type: cell-based; conditions: 100 μM, 10 minutes
Procedure: Porcine vascular endothelial cells (PECs) were cultured at 37° C. in the presence of 5% CO2 using a DMEM medium containing 10% FCS, 1% NEAA and 1% P/S (100 units/ml penicillin and 100 μg/ml streptomycin).
6×10^5 PECs were inoculated per dish using 6 cm dishes (NUNC), washed twice with phosphate buffered saline (PBS) (-), and then cultured for 24 hours in a serum-free DMEM medium containing 1% NEAA. Subsequently, at a final concentration of 100 μM, homoserine lactone hydrochloride, N-butyryl-L-homoserine lactone, N-(3-oxohexanoyl)-L-homoserine lactone and N-(3-oxododecanoyl)-L-homoserine lactone were each added, and then each solution was allowed to react for 10 minutes. Similarly to (1), the effect of acylated homoserine lactone on Akt activity in PECs were examined by Western blotting.

With `CCCCCCCCCC(=O)CC(=O)N[C@H]1CCOC1=O` [N-(3-oxododecanoyl)-L-homoserine lactone] the “cleaved PARP over time” value ([1]; 30 μM and 100 μM) was “behavior similar to that of cleaved caspase-9”, the “concentration at which cleaved PARP was detected” value ([1]; 3 hours of reaction, 0, 1, 10, 30 and 100 μM) was no less than 30 µM and the viability [2] was 49%. The “inhibition of Akt activity lasted until (after stimulation)” value [3] was 6 h, the “cell morphology by Hoechst 33342 staining” value ([4]; 1 μM) was “only normal cells were observed” and the “proportion of apoptotic cells to the total cell count” value (“proportion of apoptotic cells” for short) ([4]; 10 μM) was 15%. For the same molecule, the “proportion of apoptotic cells” value ([4]; 30 μM) was 39%, the “proportion of apoptotic cells” value ([4]; 100 μM) was 50% and the “concentration at which apoptotic cells exhibiting chromatin condensation were observed” value [4] was no less than 10 µM. The “concentration at which the DNA ladder was observed” value [5] was no less than 30 µM and the “Akt activity in PECs” value [6] was “significantly decreases”.
